Article PMC13108699, “Mass balance and metabolite profiling of ^14C-Zalunfiban in humans following single-dose subcutaneous administration” (Xenobiotica; the fate of foreign compounds in biological …, 2025)
Values joined by “and” are separate entries in the source; they are usually repeats but may differ in a detail not shown here. Equal values may be shown once.

Assays:
[1] = Metabolite profiling of pooled whole blood, urine and faeces by LC radiochromatograms with AMS; type: in vivo, human
Protocol: For metabolite profiling in whole blood, urine, and faeces, LC-MS/MS followed by AMS was used. The HPLC system included a 1290 Infinity Sampler, Binary Pump, and thermostat (Agilent, UK). The chromatographic method used an aqueous formic acid (MPA)/ammonium acetate:acetonitrile:methanol (MPB) gradient and a Scherzo SS-C18 HPLC column at a temperature of 40 °C with injection volumes of 50–200 microliters. The gradient was set at 90% MAP and 10% MPB. The mass spectrometer was a Q-Exactive system (Thermo Fisher Scientific, UK) and the AMS a single stage NEC SSAMS-250.
Single whole blood, faeces, and urine pools were created across subjects and radioactive regions representing 10% or more of the circulating radioactivity were analysed (e.g. 10% or more of the circulating radioactivity in whole blood or accounting for 10% or more of the administered radioactivity/dose in urine and faeces), To create the pool, an individual subject AUC pool was prepared, and a constant proportion of each subject pool was taken to create one cross-subject pool. The whole blood sample pool included samples from hours 0–144, the urine sample pool included samples from hours 0–48, and the faeces pool from hours 0–192.
Whole blood, faeces, and urine radiochromatograms were generated for each sample by collecting HPLC fractions at intervals of 2 (30 s) or 4 (15 s) per minute over the run time of 110 min.
Radiochromatograms were generated from AMS data using the LAURA V6 software (LabLogic, Sheffield, UK). Regions of interest were quantified and provisionally identified where possible by assignment of observed peaks in each radiochromatogram to either parent zalunfiban or M1 by retention time matching, with corresponding ^12C-reference standards obtained via LC-UV.
Assignment of parent and metabolites was made by matching retention times with synthesised standards at wavelengths of 210, 230, 254, 270, and 300 nm, using liquid chromatography ultraviolet chromatography (LC-UV).
For extraction of ^14C-zalunfiban from whole blood, weighed aliquots in microcentrifuge tubes were processed with vortex mixing and centrifugation. The supernatant was then harvested and the process repeated with the bullet material in the original tube using acetonitrile and then methanol. The combined aliquots then underwent AMS analysis to determine the extraction recovery. Once optimised, the final combined supernatant was dried under N2 gas at 40 °C and reconstituted with 1 mL methanol:water (20:80, v/v), with vortex mixing and sonication. This was followed by analysis by LC. The radioactivity extraction recovery for whole blood (AUC0–144h) was 54.5%,
For extraction of ^14C-zalunfiban from homogenised faeces, weighed aliquots in microcentrifuge tubes were processed with vortex mixing and centrifugation, and then diluted with acetonitrile, followed by additional mixing, centrifugation, and repeat extraction with methanol:water until optimised. Once optimised, the final combined supernatant was dried under N2 gas at 40 °C and reconstituted with methanol, followed by water, followed by vortex mixing, followed by analysis by LC. The radioactivity extraction recovery for faeces (0–192 h) was 100%.
Urine was not subjected to extraction. An aliquot was dispensed into an LC vial prior to analysis.

platelet aggregation = assay: In vitro inhibition of ADP-induced platelet aggregation in platelet-rich plasma; type: cell-based, human
Protocol: Ten mL of whole blood was collected from healthy human donors via venipuncture and treated with an anticoagulant (D-phenylalanyl-prolyl-arginyl chloromethyl ketone). From this, platelet-rich plasma (PRP) was prepared by centrifuging whole blood at room temperature at 650 × g for 4 min. PRP was removed and standardised to a uniform platelet concentration of 3.0 × 10^5/μL, using platelet poor plasma as a diluent, where necessary. […] Platelet aggregation was measured using an aggregometer (PAP-8E C/N 106075; Bio/Data Corp, Horsham PA). For M1 a range of concentrations was tested to produce a single fitted curve, and the Levenberg-Marquardt approach was used to calculate IC50 values.

Lipophilicity = type: physicochemical
Water solubility = type: physicochemical

- Percentage of dose excreted in urine ([1]; 0–48 h): 52.98% and 53.0%
- Percentage of total radioactivity in urine ([1]; 0–48 h cross-participant pooled sample): 64.1%
- Percentage of dose excreted in faeces ([1]; 0–192 h): 2.87%
- Percentage of total radioactivity in faeces ([1]; 0–192 h pooled sample): 20.8%
- Percentage of total circulating radioactivity in whole blood ([1]; AUC0–144 cross-pooled whole blood extract): 24.4%
- Radiochromatogram peak, faeces extract ([1]; male, human, in vivo): 20.83 %ROI
- IC50 (platelet aggregation; Homo sapiens, Platelet, 20 min, PRP, 20 min at 22°C, ADP-initiated aggregation): 25.5 ± 3.5 µM
- Lipophilicity compared with zalunfiban (Lipophilicity): more lipophilic than zalunfiban
- solubility (Water solubility): < 0.01 µg/mL
Compound: Nc1cncc(-c2nn3c(=O)cc(N4CCNCC4)nc3s2)c1 [M1, des-gly-zalunfiban]
- Antiplatelet activity relative to zalunfiban (platelet aggregation; from IC50 values): < 1%
